Source: US20250353841A1 (BIOGEN MA INC., priority 2022, published 2025)

Tested on: mHTT protein
Test: not given
Conditions: HD patient cells; cited from earlier work

In the case of `CC1(C)CC(Oc2ccc(-c3ccc(-c4cn[nH]c4)cc3O)nn2)CC(C)(C)N1` [branaplam], the mHTT protein levels is given as “lowers mHTT protein levels”.

Tested on: mHTT protein
Test: not given
Conditions: HD mouse model; cited from earlier work

For `CC1(C)CC(Oc2ccc(-c3ccc(-c4cn[nH]c4)cc3O)nn2)CC(C)(C)N1` [branaplam], the mHTT protein levels is listed as “lowers mHTT protein levels”.

Tested on: mutant Huntington (HTT) protein
Test: HTT Mutant HTRF iPSC assay (mHTT protein lowering)
Format: cell-based
Conditions: human iPSC derived from a HTT patient with a poly-Q49 mutation

First: Cc1cn2cc(-c3cc(OC(F)F)c4nc(C5CCNCC5)cn4c3)cc(F)c2n1 [Compound 536, 8-(difluoromethoxy)-8′-fluoro-2′-methyl-2-(piperidin-4-yl)-6,6′-biimidazo[1,2-a]pyridine]
Second: Cc1cn2nc(-c3cc(OC(F)F)c4nc(C5CCNCC5)cn4c3)cc(C)c2n1 [Compound 537, 6-[8-(difluoromethoxy)-2-(4-piperidyl)imidazo[1,2-a]pyridin-6-yl]-2,8-dimethyl-imidazo[1,2-b]pyridazine]
The IC50 of the first is higher: 100 to 1000 nM for the first, < 100 nM for the second.

First: COc1cc(-c2cc(C)c3nc(C)cn3n2)cn2cc(C3CCNCC3)nc12 [Compound 538, 6-(8-methoxy-2-(piperidin-4-yl)imidazo[1,2-a]pyridin-6-yl)-2,8-dimethylimidazo[1,2-b]pyridazine]
Second: Cc1cn2nc(-c3cc(C)c4nc(C5CCNCC5)cn4c3)cc(C)c2n1 [Compound 555, 2,8-dimethyl-6-(8-methyl-2-(piperidin-4-yl)imidazo[1,2-a]pyridin-6-yl)imidazo[1,2-b]pyridazine]
The IC50 of the first is lower: < 100 nM for the first, 100 to 1000 nM for the second.

Compared with `COc1cc(-c2cc(C)c3nc(C)cn3n2)cn2cc([C@H]3[C@@H]4CN(C)C[C@@H]43)nc12` [Compound 539, 6-[8-methoxy-2-[(1S,5R)-3-methyl-3-azabicyclo[3.1.0]hexan-6-yl]imidazo[1,2-a]pyridin-6-yl]-2,8-dimethyl-imidazo[1,2-b]pyridazine], `COc1cc(-c2cc3c(C)nc(C)cn3n2)cn2cc([C@H]3[C@@H]4CN(C)C[C@@H]43)nc12` [Compound 542, 2-(8-methoxy-2-((1R,5S,6r)-3-methyl-3-azabicyclo[3.1.0]hexan-6-yl)imidazo[1,2-a]pyridin-6-yl)-4,6-dimethylpyrazolo[1,5-a]pyrazine] is higher in IC50: < 100 nM for the first, 100 to 1000 nM for the second. The first is the more potent here.

First: COc1cc(-c2cc(C(F)F)c3nc(C)cn3n2)cn2cc([C@H]3[C@@H]4CN(C)C[C@@H]43)nc12 [Compound 540, 8-(difluoromethyl)-6-[8-methoxy-2-[3-methyl-3-azabicyclo[3.1.0]hexan-6-yl]imidazo[1,2-a]pyridin-6-yl]-2-methyl-imidazo[1,2-b]pyridazine]
Second: COc1cc(-c2cc(C)c3nc(C)nn3n2)cn2cc([C@H]3[C@@H]4CN(C)C[C@@H]43)nc12 [Compound 541, 6-(8-methoxy-2-((1R,5S,6r)-3-methyl-3-azabicyclo[3.1.0]hexan-6-yl)imidazo[1,2-a]pyridin-6-yl)-2,8-dimethyl-[1,2,4]triazolo[1,5-b]pyridazine]
The IC50 of the first is lower: < 100 nM for the first, 100 to 1000 nM for the second.

`COc1cc(-c2cc(F)c3nn(C)cc3c2)cc2cn(C3CCNCC3)nc12` [Compound 543, 7-fluoro-7′-methoxy-2-methyl-2′-(piperidin-4-yl)-2H,2′H-5,5′-biindazole] and `COc1cc(-c2cc(C)c3nn(C)cc3c2)cc2cn(C3CCNCC3)nc12` [Compound 544, 7-methoxy-2′,7′-dimethyl-2-(piperidin-4-yl)-2H,2′H-5,5′-biindazole] fall in the same range of IC50: 1000 to 9000 nM for the first, 1000 to 9000 nM for the second.

`COc1cc(-c2cc(F)c3nc(C)cn3c2)cc2cn(C3CCNCC3)nc12` [Compound 545, 5-(8-fluoro-2-methylimidazo[1,2-a]pyridin-6-yl)-7-methoxy-2-(piperidin-4-yl)-2H-indazole] and `COc1cc(-c2cc(C#N)c3nc(C)cn3c2)cc2cn(C3CCNCC3)nc12` [Compound 546, 6-(7-methoxy-2-(piperidin-4-yl)-2H-indazol-5-yl)-2-methylimidazo[1,2-a]pyridine-8-carbonitrile] fall in the same range of IC50: 1000 to 9000 nM for the first, 1000 to 9000 nM for the second.

`COc1cc(-c2cc(C)c3nc(C)nn3c2)cc2cn(C3CCNCC3)nc12` [Compound 547, 6-(7-methoxy-2-(piperidin-4-yl)-2H-indazol-5-yl)-2,8-dimethyl-[1,2,4]triazolo[1,5-a]pyridine] and `COc1cc(-c2cc(F)c3nc(C)cn3c2)cc2nn(C3CCNCC3)nc12` [Compound 548, 6-(8-fluoro-2-methyl-imidazo[1,2-a]pyridin-6-yl)-4-methoxy-2-(4-piperidyl)benzotriazole] fall in the same range of IC50: 1000 to 9000 nM for the first, 1000 to 9000 nM for the second.

`Cc1cn2nc(-c3cc(OC(F)(F)F)c4nc(C5CCNCC5)cn4c3)cc(C)c2n1` [Compound 549, 2,8-dimethyl-6-(2-(piperidin-4-yl)-8-(trifluoromethoxy)imidazo[1,2-a]pyridin-6-yl)imidazo[1,2-b]pyridazine] and `Cc1cn2nc(-c3cc(Cl)c4nc(C5CCNCC5)cn4c3)cc(C)c2n1` [Compound 556, 6-(8-chloro-2-(piperidin-4-yl)imidazo[1,2-a]pyridin-6-yl)-2,8-dimethylimidazo[1,2-b]pyridazine] fall in the same range of IC50: 100 to 1000 nM for the first, 100 to 1000 nM for the second.

First: Cc1cn2nc(-c3ccc4nc(C5CCNCC5)oc4c3)cc(C)c2n1 [Compound 550, 6-(2,8-dimethylimidazo[1,2-b]pyridazin-6-yl)-2-(4-piperidyl)-1,3-benzoxazole]
Second: Cc1cn2nc(-c3ccc4nc(C5CCNCC5)c(F)n4c3)cc(C)c2n1 [Compound 557]
The IC50 of the first is higher: 100 to 1000 nM for the first, < 100 nM for the second. The second is the more potent here.

First: Cc1cn2nc(-c3ccc4nc(C5CCNCC5)cn4c3)cc(C)c2n1 [Compound 551, 2,8-dimethyl-6-[2-(4-piperidyl)imidazo[1,2-a]pyridin-6-yl]imidazo[1,2-b]pyridazine]
Second: Cc1cn2nc(-c3ccc4nc(C5CCN(C)CC5)cn4c3)cc(C)c2n1 [Compound 552]
The IC50 of the first is lower: < 100 nM for the first, 100 to 1000 nM for the second. The first is the more potent here.

`Cc1nc2ccc(-c3ccc4nc([C@H]5[C@@H]6CN(C)C[C@@H]65)cn4c3)nn2n1` [Compound 553, 2-methyl-6-(2-((1R,5S,6r)-3-methyl-3-azabicyclo[3.1.0]hexan-6-yl)imidazo[1,2-a]pyridin-6-yl)-[1,2,4]triazolo[1,5-b]pyridazine] and `Cc1cn2nc(-c3ccc4nc([C@H]5[C@@H]6CN(C)C[C@@H]65)cn4c3)cc(C)c2n1` [Compound 554, 2,8-dimethyl-6-(2-((1R,5S,6r)-3-methyl-3-azabicyclo[3.1.0]hexan-6-yl)imidazo[1,2-a]pyridin-6-yl)imidazo[1,2-b]pyridazine] fall in the same range of IC50: 100 to 1000 nM for the first, 100 to 1000 nM for the second.

First: Cc1cn2nc(-c3cc(F)c4nc(C5CCC6(CC5)CC(N)C6)[nH]c4c3)cc(C)c2n1 (stereo not shown) [Compound 559, 7-(6-(2,8-dimethylimidazo[1,2-b]pyridazin-6-yl)-4-fluoro-1H-benzo[d]imidazol-2-yl)spiro[3.5]nonan-2-amine]
Second: Cc1nc2ccc(-c3cc(F)c4nn(C5CCNCC5)cc4c3)nn2n1 [Compound 561, 6-(7-fluoro-2-(piperidin-4-yl)-2H-indazol-5-yl)-2-methyl-[1,2,4]triazolo[1,5-b]pyridazine]
The IC50 of the first is higher: 100 to 1000 nM for the first, < 100 nM for the second.

For `Cc1nc2ccc(-c3cc(F)c4nc(C5CCNCC5)cn4c3)nn2n1` [Compound 577, 6-(8-fluoro-2-(piperidin-4-yl)imidazo[1,2-a]pyridin-6-yl)-2-methyl-[1,2,4]triazolo[1,5-b]pyridazine], the IC50 was < 100 nM.

Tested on: mHTT protein
Test: not given
Conditions: blood samples from SMA Type I patients dosed orally; cited from earlier work

For `CC1(C)CC(Oc2ccc(-c3ccc(-c4cn[nH]c4)cc3O)nn2)CC(C)(C)N1` [branaplam], the mHTT protein levels is given as “lowers mHTT protein levels”.
